Measurements taken from patent US20210259954A1, “CILIA-TARGETING NANOPARTICLES” (Chapman University, priority 2019, published 2021).

Columns and labels:
[1] = test system: Tie2Cre⋅IFT88^flox/flox mice; experiment: Working heart perfusion system, hearts of treated IFT88 mice; type: in vivo, mouse
primary cilia = experiment: In vitro cilia length, immunocytochemistry (Example 2); type: cell-based, porcine; details: 16 h of treatment
Description: Immunocytochemistry and confocal microscopy. For the in vitro cilia length measurements, cells were grown on the Formvar® polymer, as mentioned above. […] Fenoldopam-alone was also used as another control. […] An antibody against acetylated-α-tubulin (1:10,000 dilution, Sigma-Aldrich) and the secondary antibodies were also diluted in 10% FBS to decrease the background florescence; a FITC-conjugated secondary antibody (1:1000; Pierce) was used. Cells were then washed three times for 5 minutes each with cacodylate buffer and sealed with mounting media containing DAPI (Vector Laboratories). […] Images were processed using NIS-Elements High Content AR 4.30.02 (Nikon). Automated image acquisition (ND acquisition) was conducted under the same ×60 magnification (selected area capturing option) field and Z-stack (0.1 μm slices) settings to create a 3D video. All imaging and video acquisition times and the microscope stage were automatically controlled (XY, XZ and YZ) by an automated perfect focusing system (PFS). The in vivo cilia length measurements and NP localizations in the zebrafish and mouse tissues were performed using the same method.

[2] = test system: Tie2Cre⋅Pkd2^flox/flox mice; experiment: Working heart perfusion system, hearts of treated Pkd2 mice (Example 1); type: in vivo, mouse; details: for CO, cardiac output / EDPVR, end-diastolic pressure volume relation / EF, ejection fraction / ESPVR, end-systolic pressure volume relation / HR, heart rate / LV EDP, end-diastolic pressure / LV EDV, end-diastolic volume / LV ESP, end-systolic pressure / LV ESV, end-systolic volume / LV Pmax, systolic pressure / SV, stroke volume / SW, stroke work / dP/dtmax, maximum rate of LV pressure rise / dP/dtmin, maximum rate of LV pressure fall: Pkd2 heart
Description: One-week-old Tie2Cre⋅Pkd2^WT/WT (with cre activation; control group) or Tie2Cre⋅Pkd2^flox/flox (without cre activation; control group), and Tie2Cre⋅Pkd2^flox/flox (with cre activation; experimental group) mice were injected intra-peritoneally with 5 μg/μL tamoxifen every day for five consecutive days. […] The mice were next injected with PBS (control), CT-DAu-NPs or CT-PLGA-NPs (0.5 to 2.0 mg/kg body weight) via intravenous (IV) injections. […] The mice were treated every 72 hours with different NPs for 8 weeks.
Working Heart Perfusion System. To study heart function independently from neuronal innervation or humoral effect, ex vivo heart parameters were collected using a mouse working heart system from Emka Technologies. This system collected data of the cardiac contractile strength, electrical heart propagation (ECG; electrocardiogram) and other cardiac functions, including the heart rate (HR), left ventricle pressure (LVP), left ventricular volume (LVV), left atrial pressure (LAP), aortic out flow (AOF), stroke volume (SV), cardiac output (CO), end diastolic/systolic volume (Edv-Esv), rate of left atrial pressure raise (+dp/dt) and fall (−dt/dt), preload, afterload, and main aortic pressure. Heparin (100 units, IP), xylazine (10-15 mg/kg, IP), and ketamine (200-350 mg/kg, IP) were used to prevent blood coagulation in the coronary arteries and to anesthetize the mice. After cannulation, the heart was perfused with Krebs-Ringer superfusion solution (in mM: 125 NaCl, 2.5 KCl, 1.25 NaH2PO4, 2 CaCl2, 1 MgCl2, 25 NHCO3 and 25 glucose). Throughout the experiment, the solution was continuously bubbled with carbogen (95% O2 and 5% CO2) to reach 7.4 pH at 38° C. Stress tests were performed in the heart by perfusing epinephrine (4 μg/L) or diltiazem (0.08 μg/L). The cardiac function was plotted in a loop diagram showing the LVV-LVP relationship (volume-pressure loop).

[3] = Pharmacokinetics of fenoldopam in mice (Example 1); type: in vivo, mouse; details: 30-minute infusion vs bolus of fenoldopam-loaded CTNDDS
Description: The pharmacokinetics of different NPs treated mice were studied. […] All drugs were extracted from plasma samples and HPLC analysis performed. In the biodistribution studies, whole organs from the fluorescent-labelled NPs treated mice (heart, kidney, liver, spleen and lung) were collected, homogenized and measured for fluorescence intensity to assess the amount of NP distribution in different organs at 24- and 72-hours after treatments. For the in vivo toxicity studies, 200 μL of blood samples were collected from different treatments (PBS, CT-DAu-NPs or CT-PLGA-NPs). Biochemistry was performed using biochemical analyzer (VetScan VS2).

Oc1ccc(C2CNCCc3c2cc(O)c(O)c3Cl)cc1 (stereo not shown) [Fenoldopam, fenoldopam]
CO, cardiac output ([1]; diltiazem stress): 1857 ± 137 µL/min | EDPVR, end-diastolic pressure volume relation ([1]; diltiazem stress): 0.13 ± 0.01 mmHg/μL | EF, ejection fraction ([1]; diltiazem stress): 51.6 ± 1.7% | ESPVR, end-systolic pressure volume relation ([1]; diltiazem stress): 2.1 ± 0.1 mmHg/μL | HR, heart rate ([1]; diltiazem stress): 104 ± 20 beat/min | LV EDP, end-diastolic pressure ([1]; diltiazem stress): 5.1 ± 0.1 mmHg | LV EDV, end-diastolic volume ([1]; diltiazem stress): 40.0 ± 0.1 µL | LV ESP, end-systolic pressure ([1]; diltiazem stress): 30.2 ± 0.1 mmHg | LV ESV, end-systolic volume ([1]; diltiazem stress): 19.4 ± 0.7 µL | LV Pmax, systolic pressure ([1]; diltiazem stress): 40.2 ± 0.1 mmHg | SV, stroke volume ([1]; diltiazem stress): 20.6 ± 0.7 µL | SW, stroke work ([1]; diltiazem stress): 725 ± 20 mmHg · μL | dP/dtmax, maximum rate of LV pressure rise ([1]; diltiazem stress): 3619 ± 111 mmHg/s | dP/dtmin, maximum rate of LV pressure fall ([1]; diltiazem stress): −1372 ± 330 mmHg/s | CO, cardiac output ([1]; epinephrine stress): 7590 ± 176 µL/min | EDPVR, end-diastolic pressure volume relation ([1]; epinephrine stress): 0.13 ± 0.01 mmHg/μL | EF, ejection fraction ([1]; epinephrine stress): 78.2 ± 2.2% | ESPVR, end-systolic pressure volume relation ([1]; epinephrine stress): 10.0 ± 1.1 mmHg/μL | HR, heart rate ([1]; epinephrine stress): 241 ± 22 beat/min | LV EDP, end-diastolic pressure ([1]; epinephrine stress): 5.3 ± 0.2 mmHg | LV EDV, end-diastolic volume ([1]; epinephrine stress): 40.2 ± 0.1 µL | LV ESP, end-systolic pressure ([1]; epinephrine stress): 64.5 ± 0.2 mmHg | LV ESV, end-systolic volume ([1]; epinephrine stress): 8.7 ± 0.9 µL | LV Pmax, systolic pressure ([1]; epinephrine stress): 56.0 ± 0.3 mmHg | SV, stroke volume ([1]; epinephrine stress): 31.4 ± 0.8 µL | SW, stroke work ([1]; epinephrine stress): 2538 ± 16 mmHg · μL | dP/dtmax, maximum rate of LV pressure rise ([1]; epinephrine stress): 17206 ± 578 mmHg/s | dP/dtmin, maximum rate of LV pressure fall ([1]; epinephrine stress): -3180 ± 120 mmHg/s | CO, cardiac output ([1]; vehicle): 3780 ± 437 µL/min | EDPVR, end-diastolic pressure volume relation ([1]; vehicle): 0.13 ± 0.01 mmHg/μL | EF, ejection fraction ([1]; vehicle): 65.5 ± 3.5% | ESPVR, end-systolic pressure volume relation ([1]; vehicle): 5.4 ± 0.7 mmHg/μL | HR, heart rate ([1]; vehicle): 144 ± 32 beat/min | LV EDP, end-diastolic pressure ([1]; vehicle): 5.1 ± 0.1 mmHg | LV EDV, end-diastolic volume ([1]; vehicle): 40.1 ± 0.1 µL | LV ESP, end-systolic pressure ([1]; vehicle): 54.3 ± 1.0 mmHg | LV ESV, end-systolic volume ([1]; vehicle): 13.8 ± 1.4 µL | LV Pmax, systolic pressure ([1]; vehicle): 72.4 ± 1.3 mmHg | SV, stroke volume ([1]; vehicle): 26.3 ± 1.4 µL | SW, stroke work ([1]; vehicle): 1767 ± 56 mmHg · μL | dP/dtmax, maximum rate of LV pressure rise ([1]; vehicle): 7819 ± 140 mmHg/s | dP/dtmin, maximum rate of LV pressure fall ([1]; vehicle): −1658 ± 190 mmHg/s | cilia length (primary cilia): increased the cilia length | CO, cardiac output ([2]; diltiazem stress): 1873 ± 70 µL/min | EDPVR, end-diastolic pressure volume relation ([2]; diltiazem stress): 0.14 ± 0.01 mmHg/μL | EF, ejection fraction ([2]; diltiazem stress): 51.6 ± 1.4% | ESPVR, end-systolic pressure volume relation ([2]; diltiazem stress): 2.3 ± 0.1 mmHg/μL | HR, heart rate ([2]; diltiazem stress): 98 ± 9 beat/min | LV EDP, end-diastolic pressure ([2]; diltiazem stress): 5.7 ± 0.2 mmHg | LV EDV, end-diastolic volume ([2]; diltiazem stress): 40.3 ± 0.8 µL | LV ESP, end-systolic pressure ([2]; diltiazem stress): 33.5 ± 0.5 mmHg | LV ESV, end-systolic volume ([2]; diltiazem stress): 19.5 ± 0.6 µL | LV Pmax, systolic pressure ([2]; diltiazem stress): 44.7 ± 0.7 mmHg | SV, stroke volume ([2]; diltiazem stress): 20.8 ± 0.8 µL | SW, stroke work ([2]; diltiazem stress): 812 ± 29 mmHg · μL | dP/dtmax, maximum rate of LV pressure rise ([2]; diltiazem stress): 4020 ± 643 mmHg/s | dP/dtmin, maximum rate of LV pressure fall ([2]; diltiazem stress): −1537 ± 97 mmHg/s | CO, cardiac output ([2]; epinephrine stress): 6810 ± 347 µL/min | EDPVR, end-diastolic pressure volume relation ([2]; epinephrine stress): 0.16 ± 0.01 mmHg/μL | EF, ejection fraction ([2]; epinephrine stress): 77.7 ± 2.0% | ESPVR, end-systolic pressure volume relation ([2]; epinephrine stress): 9.7 ± 0.9 mmHg/μL | HR, heart rate ([2]; epinephrine stress): 219 ± 44 beat/min | LV EDP, end-diastolic pressure ([2]; epinephrine stress): 6.4 ± 0.5 mmHg | LV EDV, end-diastolic volume ([2]; epinephrine stress): 39.9 ± 0.1 µL | LV ESP, end-systolic pressure ([2]; epinephrine stress): 63.2 ± 0.3 mmHg | LV ESV, end-systolic volume ([2]; epinephrine stress): 8.9 ± 0.8 µL | LV Pmax, systolic pressure ([2]; epinephrine stress): 84.3 ± 0.4 mmHg | SV, stroke volume ([2]; epinephrine stress): 31.1 ± 0.7 µL | SW, stroke work ([2]; epinephrine stress): 2417 ± 28 mmHg · μL | dP/dtmax, maximum rate of LV pressure rise ([2]; epinephrine stress): 16864 ± 85 mmHg/s | dP/dtmin, maximum rate of LV pressure fall ([2]; epinephrine stress): −3843 ± 277 mmHg/s | CO, cardiac output ([2]; vehicle): 3486 ± 81 µL/min | EDPVR, end-diastolic pressure volume relation ([2]; vehicle): 0.13 ± 0.01 mmHg/μL | EF, ejection fraction ([2]; vehicle): 62.5 ± 0.2% | ESPVR, end-systolic pressure volume relation ([2]; vehicle): 4.4 ± 0.1 mmHg/μL | HR, heart rate ([2]; vehicle): 140 ± 24 beat/min | LV EDP, end-diastolic pressure ([2]; vehicle): 5.0 ± 0.1 mmHg | LV EDV, end-diastolic volume ([2]; vehicle): 40.0 ± 0.1 µL | LV ESP, end-systolic pressure ([2]; vehicle): 49.7 ± 1.5 mmHg | LV ESV, end-systolic volume ([2]; vehicle): 15.0 ± 0.1 µL | LV Pmax, systolic pressure ([2]; vehicle): 66.3 ± 2.0 mmHg | SV, stroke volume ([2]; vehicle): 24.9 ± 0.1 µL | SW, stroke work ([2]; vehicle): 1530 ± 20 mmHg · μL | dP/dtmax, maximum rate of LV pressure rise ([2]; vehicle): 7157 ± 211 mmHg/s | dP/dtmin, maximum rate of LV pressure fall ([2]; vehicle): −1624 ± 24 mmHg/s | LVP/LVV abnormalities (P-V loops) ([2]; Pkd2 hearts): Both CTNDDS but not fenoldopam-alone corrected these abnormalities | arrhythmia (ECG) ([2]; Pkd2 hearts, 8-week treatment): could be corrected with 8-week treatment of CTNDDS but not fenoldopam-alone | total plasma concentration of fenoldopam (area under the curve, one hour) [3]: significantly higher
